Values quoted from earlier work, collected in article PMC5117885 (Drug Design, Development and Therapy, 2016).

Columns and labels:
[1] = phase 3 ACCELERATE trial
[2] = not given; remark: listed apart in the source

Compound: CCC(CC)CC1(C(=O)Nc2ccccc2SC(=O)C(C)C)CCCCC1 [Dalcetrapib]
- Effect on HDL-C levels: increased HDL-C levels
- Reduction of cardiovascular events compared to placebo group: did not demonstrate a significant reduction of cardiovascular events

Compound: Cc1cc(C)c2c(c1)[C@@H](N(Cc1cc(C(F)(F)F)cc(C(F)(F)F)c1)c1nnn(C)n1)CCCN2C[C@H]1CC[C@H](C(=O)O)CC1 [Evacetrapib]
- Efficacy [1]: did not improve the efficacy

Compound: CCOC(=O)N1c2ccc(C(F)(F)F)cc2[C@@H](N(Cc2cc(C(F)(F)F)cc(C(F)(F)F)c2)C(=O)OC)C[C@H]1CC [Torcetrapib]
- Effect on blood pressure and aldosterone [2]: Elevation of BP caused by torcetrapib was associated with a substantial increase of aldosterone
- Effect on HDL-C and LDL-C ([2]; ILLUMINATE trial): HDL-C increase and LDL-C decrease
- Risk of death and cardiac events ([2]; ILLUMINATE trial, patients receiving torcetrapib): significantly increased risk of death and cardiac events
